# Measurements reported in ChEMBL document CHEMBL1909294, “Translating clinical findings into knowledge in drug safety evaluation--drug induced liver injury prediction system (DILIps)” (PLoS Comput Biol, 2011).
# Counter-ions that a name gives are not always drawn.
# System: Hepatotoxicity
# Conditions: not given
# 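Note: binary label assigned from drug-induced liver injury observed in pharmaceutical company records, forming the validation set for the DILIps prediction system.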
row,SMILES,DILI positive/negative
1,C=CC(O)CC#N (stereo unspecified),0
2,O=C1NC(=O)C(O)(O)C(=O)N1,0
3,C=C1CC[C@@]2(O)[C@H]3Cc4ccc(O)c5c4[C@@]2(CCN3CC2CC2)[C@H]1O5,0
4,S=C=Nc1cccc2ccccc12 [1-NAPHTHYLISOTHIOCYANATE],1
5,CC(=O)Nc1ccc2c(c1)Cc1ccccc1-2 [2-ACETYLAMINOFLUORENE],1
6,Cc1ccc2cc3c(ccc4ccccc43)c3c2c1CC3 [3-METHYLCHOLANTHRENE],1
7,CC(=O)CC(c1ccc([N+](=O)[O-])cc1)c1c(O)c2ccccc2oc1=O (stereo unspecified) [ACENOCOUMAROL],1
8,CC(=O)c1ccc(S(=O)(=O)NC(=O)NC2CCCCC2)cc1 [ACETOHEXAMIDE],1
9,N[C@H](C(=O)O)[C@@H]1CC(Cl)=NO1 [ACIVICIN],0
10,COc1cc2c(c3oc(=O)c4c(c13)CCC4=O)[C@@H]1C=CO[C@@H]1O2 [AFLATOXIN],1
11,C=CCO [ALLYL ALCOHOL],1
12,C=CCOC=O [ALLYL FORMATE],1
13,Cl.O=C(O)CCCCCCNC1c2ccccc2CCc2ccccc21 [AMINEPTINE HYDROCHLORIDE],1
14,Nc1ccc(C(=O)[O-])cc1.[K+] [AMINOBENZOATE POTASSIUM],0
15,CCOC(=O)C1(c2ccccc2)CCN(CCc2ccc(N)cc2)CC1.Cl [ANILERIDINE HYDROCHLORIDE],0
16,O=C1O[C@H]([C@@H](O)CO)C(O)=C1O [ASCORBIC ACID],0
17,COc1ccc(CCN2CCC(Nc3nc4ccccc4n3Cc3ccc(F)cc3)CC2)cc1 [ASTEMIZOLE],0
18,C=C1[C@@H]2CCC3[C@@](CC[C@@H]4[C@H](C(=O)O)C[C@@H](O[C@@H]5O[C@H](CO)[C@@H](OS(=O)(=O)[O-])[C@H](OS(=O)(=O)[O-])[C@H]5OC(=O)CC(C)C)C[C@@]34C)(C2)[C@@H]1O.[K+].[K+] (stereo partly specified) [ATRACTYLOSIDE],1
19,Cl.Cl.O=C(CCN1CCN2CCCC2C1)N1c2ccccc2Sc2ccc(Cl)cc21 (stereo unspecified) [AZACLORZINE HYDROCHLORIDE],1
20,CN1CCC(=C2c3ccccc3CCc3cccnc32)CC1.O=C(O)/C=C\C(=O)O.O=C(O)/C=C\C(=O)O [AZATADINE MALEATE],1
21,CC1(C)S[C@@H]2[C@H](NC(=O)[C@H](NC(=O)N3CCNC3=O)c3ccccc3)C(=O)N2[C@H]1C(=O)[O-].[Na+] [AZLOCILLIN SODIUM],0
22,CC(C)COCC(CN(Cc1ccccc1)c1ccccc1)N1CCCC1.Cl.O (stereo unspecified) [BEPRIDIL HYDROCHLORIDE],1
23,Oc1c(Cl)cc(Cl)cc1Sc1cc(Cl)cc(Cl)c1O [BITHIONOL],1

row,SMILES,DILI positive/negative
1,Brc1ccccc1 [BROMOBENZENE],1
2,CN(C)CCC(c1ccc(Br)cc1)c1ccccn1.O=C(O)/C=C\C(=O)O (stereo unspecified) [BROMPHENIRAMINE MALEATE],0
3,C=C1CC[C@H](O)C/C1=C/C=C1\CCC[C@]2(C)[C@@H]([C@H](C)CCCC(C)(C)O)CC[C@@H]12.O [CALCIFEDIOL],1
4,COc1cc(CNC(=O)CCCC/C=C/C(C)C)ccc1O [CAPSAICIN],0
5,CC1(C)[C@@H](OC(=O)CCC(=O)[O-])CC[C@]2(C)[C@H]3C(=O)C=C4[C@@H]5C[C@@](C)(C(=O)[O-])CC[C@]5(C)CC[C@@]4(C)[C@]3(C)CC[C@@H]12.[Na+].[Na+] [CARBENOXOLONE SODIUM],0
6,Cn1nnnc1SCC1=C(C(=O)[O-])N2C(=O)[C@@H](NC(=O)[C@H](O)c3ccccc3)[C@H]2SC1.[Na+] [CEFAMANDOLE SODIUM],1
7,CCN1CCN(C(=O)N[C@@H](C(=O)N[C@@H]2C(=O)N3C(C(=O)O)=C(CSc4nnnn4C)CS[C@H]23)c2ccc(O)cc2)C(=O)C1=O.O.O [CEFOPERAZONE DIHYDRATE],0
8,CN(C)CCn1nnnc1SCC1=C(C(=O)O)N2C(=O)[C@@H](NC(=O)Cc3csc(N)n3)[C@H]2SC1.Cl.Cl [CEFOTIAM HYDROCHLORIDE],1
9,CC(=O)OCC1=C(C(=O)[O-])N2C(=O)[C@@H](NC(=O)Cc3cccs3)[C@H]2SC1.[Na+] [CEPHALOTHIN SODIUM],1
10,CC(=O)OCC1=C(C(=O)[O-])N2C(=O)[C@@H](NC(=O)CSc3ccncc3)[C@H]2SC1.[Na+] [CEPHAPIRIN SODIUM],0
11,C[C@H](CCC(=O)O)[C@H]1CC[C@H]2[C@@H]3[C@H](O)C[C@@H]4C[C@H](O)CC[C@]4(C)[C@H]3CC[C@]12C [CHENODIOL],1
12,CN(C)[C@@H]1C(O)=C(C(N)=O)C(=O)[C@@]2(O)C(O)=C3C(=O)c4c(O)ccc(Cl)c4[C@@](C)(O)[C@H]3C[C@@H]12.Cl [CHLORTETRACYCLINE HYDROCHLORIDE],1
13,CC1(COc2ccc(CC3SC(=O)NC3=O)cc2)CCCCC1 (stereo unspecified) [CIGLITAZONE],1
14,Cc1onc(-c2ccccc2Cl)c1C(=O)N[C@@H]1C(=O)N2[C@@H]1SC(C)(C)[C@@H]2C(=O)[O-].O.[Na+] [CLOXACILLIN SODIUM],1
15,CN1CCN(C(c2ccccc2)c2ccccc2)CC1 [CYCLIZINE],1
16,CN(CCCCCCCCCCN(C)C(=O)Oc1cccc([N+](C)(C)C)c1)C(=O)Oc1cccc([N+](C)(C)C)c1.[Br-].[Br-] [DEMECARIUM BROMIDE],1
17,Br.COc1ccc2c(c1)[C@]13CCCC[C@@H]1[C@H](C2)N(C)CC3.O [DEXTROMETHORPHAN HYDROBROMIDE],0
18,C[C@H](CCc1ccccc1)NC[C@H](O)c1ccc(O)c(C(N)=O)c1 [DILEVALOL],1
19,CCOC(=O)C1(c2ccccc2)CCN(CCC(C#N)(c2ccccc2)c2ccccc2)CC1.Cl [DIPHENOXYLATE HYDROCHLORIDE],0
20,CC[N+](C)(C)c1cccc(O)c1.[Cl-] [EDROPHONIUM CHLORIDE],0
21,C[C@@H](CO)NC(=O)[C@@H]1C=C2c3cccc4[nH]cc(c34)C[C@H]2N(C)C1.O=C(O)/C=C\C(=O)O [ERGONOVINE MALEATE],0
22,C[C@]12CC[C@@H]3c4ccc(O)cc4CC[C@H]3[C@@H]1CCC2=O [ESTRONE],1
23,C#C[C@]1(O)CC[C@H]2[C@@H]3CCc4cc(O)ccc4[C@H]3CC[C@@]21C [ETHINYL ESTRADIOL],1

row,SMILES,DILI positive/negative
1,CCSCC[C@H](N)C(=O)O [ETHIONINE],1
2,C#C[C@]1(OC(C)=O)CC[C@H]2[C@@H]3CCC4=C[C@@H](OC(C)=O)CC[C@@H]4[C@H]3CC[C@@]21C [ETHYNODIOL DIACETATE],1
3,O=c1[nH]c(=O)n([C@H]2C[C@H](O)[C@@H](CO)O2)cc1F [FLOXURIDINE],1
4,CC[N+](CC)(CC)CCOc1cccc(OCC[N+](CC)(CC)CC)c1OCC[N+](CC)(CC)CC.[I-].[I-].[I-] [GALLAMINE TRIETHIODIDE],0
5,CCC1(c2ccccc2)CCC(=O)NC1=O (stereo unspecified) [GLUTETHIMIDE],1
6,CCN(CC)CCNc1ccc(CO)c2sc3ccccc3c(=O)c12 [HYCANTHONE],1
7,CC1(c2ccccc2)Cc2cc(OCC(=O)O)c(Cl)c(Cl)c2C1=O (stereo unspecified) [INDACRINONE],1
8,O=C(O)c1ccncc1 [ISONICOTINIC ACID],0
9,Cc1cc(NC(=O)C2=C(O)c3ccccc3S(=O)(=O)N2C)no1 [ISOXICAM],0
10,N[C@@H](Cc1ccc(O)c(O)c1)C(=O)O [LEVODOPA],0
11,COc1ccc2[nH]cc(CCNC(C)=O)c2c1 [MELATONIN],0
12,CCC1(c2ccccc2)C(=O)NC(=O)N(C)C1=O (stereo unspecified) [MEPHOBARBITAL],1
13,C#C[C@]1(O)CC[C@H]2[C@@H]3CCc4cc(OC)ccc4[C@H]3CC[C@@]21C [MESTRANOL],1
14,C=C1c2cccc(O)c2C(=O)C2=C(O)[C@]3(O)C(=O)C(C(N)=O)=C(O)[C@@H](N(C)C)[C@@H]3[C@@H](O)[C@H]12.Cl [METHACYCLINE HYDROCHLORIDE],1
15,COc1ccc(OC)c(C(O)C(C)N)c1.Cl (stereo unspecified) [METHOXAMINE HYDROCHLORIDE],0
16,CN1CCN2c3ccccc3Cc3ccccc3C2C1 (stereo unspecified) [MIANSERIN],1
17,COCC(=O)O[C@]1(CCN(C)CCCc2nc3ccccc3[nH]2)CCc2cc(F)ccc2[C@@H]1C(C)C [MIBEFRADIL],0
18,CO[C@@]1(NC(=O)C(C(=O)[O-])c2ccc(O)cc2)C(=O)N2C(C(=O)[O-])=C(CSc3nnnn3C)CO[C@@H]21.[Na+].[Na+] (stereo partly specified) [MOXALACTAM DISODIUM],0
19,COC(=O)C1=C(C)NC(C)=C(C(=O)OCC(C)C)C1c1ccccc1[N+](=O)[O-] (stereo unspecified) [NISOLDIPINE],0
20,COC(=O)Nc1nc2ccc(C(=O)c3cccs3)cc2[nH]1 [NOCODAZOLE],0
21,CCCCC(CC)COC(=O)C=Cc1ccc(OC)cc1 (stereo unspecified) [OCTINOXATE],1
22,CCOc1ccc(NC(C)=O)cc1 [PHENACETIN],1

# Same assay, conditions: Liver
row,SMILES,DILI positive/negative
1,Cl.NCCNCCNCCN,1
2,Cl.Cl.OCCN1CCN(CC/C=C2/c3ccccc3Sc3ccc(C(F)(F)F)cc32)CC1,0
3,CCN(CC)Cc1cc(Nc2ccnc3cc(Cl)ccc23)ccc1O.Cl.Cl.Cl,1
4,Nc1ncn([C@@H]2O[C@H](CO)[C@@H](O)[C@H]2O)c(=O)n1 [AZACITIDINE],1
5,Cc1c(F)c(N2CCNC(C)C2)cc2c1c(=O)c(C(=O)O)cn2C1CC1 (stereo unspecified) [GREPAFLOXACIN],1
6,CC1(C)S[C@@H]2[C@H](NC(=O)[C@H](NC(=O)N3CCN(S(C)(=O)=O)C3=O)c3ccccc3)C(=O)N2[C@H]1C(=O)[O-].[Na+] [MEZLOCILLIN SODIUM],1
7,C#CC1(O)CC[C@H]2[C@@H]3CCC4=CC(=O)CC[C@@H]4[C@H]3CC[C@@]21CC (stereo partly specified) [NORGESTREL],1
8,O=S(=O)(O)O.Oc1cccc2cccnc12.Oc1cccc2cccnc12 [OXYQUINOLINE SULFATE],1
